According to US8865408B2, “Signature for the diagnosis of cancer aggressiveness and genetic instability” (Centre National de la Recherche Scientifique (CNRS), priority 2009, dated 2014):

What was measured:
MCF7 cells = experiment: Clonogenic assay, sensitivity to Chk2 inhibitor; type: cell-based; conditions: MCF7 compared with MDA-MB231 cells, 1 μM to 150 μM during 16 hours, seven more days
Description: FIG. 12. Effect of POLQ gene expression level on sensitivity to a Chk2 inhibitor. […] Survival is determined in a clonogenic assay. MCF7: squares; MDA-MB231: diamonds (B) POLQ expression is higher in MCF7 than in MDA-MB231. Gene expression levels are assayed by RT-PCR. C51 is a normal breast cell line.
MDA-MB231 and MCF7 breast cancer cells (ATCC) were grown in RPMI 1640+ glutamax medium. A 13.8 mM Chk2 inhibitor II Hydrate (Sigma RefC3742) stock solution was prepared by diluting the agent in DMSO (Sigma) and stored at −20° C. This solution was diluted in culture medium to give as indicated the final drug concentration. Cells were exposed to different concentrations ranging from 1 μM to 150 μM during 16 hours. Cells were washed with PBS buffer, fresh medium was added and cells were incubated for seven more days. Cells were fixed with NaCl 0.9% and stained with crystal violet (Sigma C3886). Clones containing more than 20 cells were counted. For the clonogenic assay 400 cells were seeded in six-well plates and incubated overnight. The POLQ expression was measured by real-time PCR as described above.
Cells overexpressing POLQ accumulate DNA damage. […] In order to test this hypothesis, the viability of the MCF7 and MDA-MB231 cells was determined in the presence of increasing amounts of a Chk2 inhibitor. […]

[1] = tested on: POLQ overexpressing (Q1, Q2, Q3) and isogenic control (CTL2, CTL5) cells; experiment: Clonogenic assay, sensitivity to alkylating agents; type: cell-based, human; conditions: POLQ over-expressing clones vs isogenic controls; MMS 1 h at 37° C., MNU continuous
Description: FIG. 9. Sensitivity to alkylating agents. Drug sensitivity was determined by clonogenic assay. Sensitivity of POLQ overexpressing (Q1, Q2, Q3) and isogenic control (CTL2, CTL5) cells to methyl methanesulfonate (MMS) and N-methyl-N-nitrosourea (MNU). Survival is expressed as the relative plating efficiency of treated cells to the controls. […] Results are the mean+/−SD of at least three separate experiments performed in duplicate.
POLQ overexpression was immuno-detected as published (Seki et al. Nucleic Acids Res 31: 6117-6126, 2003), using purified protein as a size control.
Treatment was 1 h at 37° C. for methyl methanesulfonate (MMS) and continuous for N-methyl-N-nitrosourea (MNU) Immunodetection of γ-H2AX and PT68-CHK2 was carried out according to Rao et al. (Rao et al. Mol Cancer Res 5:713-24, 2007).
A proposed role of POLQ in BER could be that over-expressed POLQ interferes with the BER pathway and leads to an accumulation of endogenous DNA damage (including damage generated by reactive oxygen species). To test this hypothesis, we measured the sensitivity of the POLQ over-expressing cells to methyl-methanesulfonate (MMS) and Nitroso-N-methylurea (MNU) (FIG. 9), both of which induce DNA damage repaired by BER.

SMILES	sensitivity to Chk2 inhibitor (survival in clonogenic assay) (MCF7 cells)	sensitivity to Chk2 inhibitor (survival in clonogenic assay) (MCF7 cells; listed as CHK2 inhibitor)	effect of POLQ over-expression on survival to treatment [1]
NC(=O)c1ccc2nc(-c3ccc(Oc4ccc(Cl)cc4)cc3)[nH]c2c1.O [Chk2 inhibitor II Hydrate]	higher sensitivity	hypersensitive	
COS(C)(=O)=O [MMS, methyl methanesulfonate]			did not significantly affect survival
CN(N=O)C(N)=O [MNU, N-methyl-N-nitrosourea]			did not significantly affect survival
